What was measured:
[1] = Literature pharmacokinetics of i.v. MnDPDP (Toft et al., 1997): manganese release, urine Mn and Zn, metabolism; type: in vivo; settings: humans, 10 μmol/kg b.w., rough recalculation of data of Toft et al.
[2] = rats, i.v.
Method: After injection, the rats were immediately placed in metabolic cages for urine collection over a period of 0-24 hours. To obtain basal content of manganese (Mn) in urine, two additional (control) rats were placed in metabolic cages for urine collection over the same period of time. The urine samples were then stored at −80° C. until Mn analysis. Before analysis, the samples were thawed and extensively shaken to obtain homogenous samples. A five ml aliquot was taken from each sample and 5 ml concentrated nitric acid was added. The samples were then resolved in a microwave oven and thereafter diluted with distilled water to a final volume of 50 ml. The Mn content of each sample was analyzed by ICP-MS (Inductively Coupled Plasma Mass Spectrometry). […] This sample was treated in an identical manner to that of the urine samples and analyzed for its Mn content. Results are presented as total 0-24 h urine Mn content (expressed as μmol/kg±S.E.M.) and as percentage (±S.E.M.) of the injected dose. The statistical difference between animals receiving MnDPDP alone and animals receiving MnDPDP and DPDP, with respect to excretion of manganese into the urine, was tested by an unpaired Student's t-test. A p-value lower than 0.05 was considered as a statistically significant difference.

[3] = rat, in vivo, ip
Method: Twenty-four hours later, the rats were killed and the brains were dissected out and stored at −80° C. until Mn analysis. […] Before analysis, each brain was resolved in 5 ml concentrated nitric acid plus 3 ml distilled water in a microwave oven, and thereafter diluted with distilled water to a final volume of 50 ml. The Mn and Zn content of each sample was analyzed by ICP-MS. Results are expressed as μg/g brain wet weight±S.E.M and percentage increase in Mn brain content. […] A p-value lower than 0.05 was considered as a statistically significant difference.

[4] = rats, i.v.; for effect on 0-24 h Zn excretion: 10 μmol/kg MnDPDP alone, with 20 μmol/kg b.w. DPDP, or 10 μmol/kg b.w. DPDP, n=2
Method: 10 male Wistar rats (approximately 250 g) were injected intravenously, via one of the tail veins, with either 0, 0.125, 0.250, 0.500 or 0.750 ml of a 10 mM DPDP formulation, corresponding to 0, 5, 10, 20 and 30 μmol/kg b.w. […] After injection, the rats were immediately placed in metabolic cages for urine collection over a period of 0-24 hours. The urine samples were then stored at −80° C. until Zn and Mn analyses. Before analyses, the samples were thawed and extensively shaken to obtain homogenous samples. A five ml aliquot was taken from each sample and 5 ml concentrated nitric acid was added. The samples were then resolved in a microwave oven and thereafter diluted with distilled water to a final volume of 50 ml. The zinc (Zn) and manganese (Mn) content of each sample were analyzed by ICP-MS. Results are presented as total 0-24 h urine Zn and Mn content (expressed as μmol/kg b.w.±S.E.M.).

white blood cells [5] = settings: mice, 10 mg/kg b.w. MnDPDP (Alexandre et al., 2006); cited from earlier work
[6] = i.v., 10 μmol/kg b.w.; humans (Toft et al.) and rats (Hustvedt et al.); cited from earlier work
white blood cells [7] = assay: Paclitaxel-induced myelosuppression (leucopenia) in mice, blood cell counts (Example 5); type: in vivo, BALB/c female mice; settings: i.p., paclitaxel 20 mg/kg b.w. on days 0, 2, 4, blood day 10
Method: To test the therapeutic efficacy, initial experiments were conducted in BALB/c female mice (15-20 g), as described by Alexandre et al., JNCI 2006; 98:236-244).
Five mice were treated in each group. Paclitaxel was administered on days 0, 2, and 4. […] Ten days after the first injection the mice were anesthetized and blood samples were withdrawn by heart puncture into EDTA-tubes and blood cell counting (including white blood cell count (WBC); absolute neutrophil (ANC), monocyte and lymphocyte count) was conducted on a CELL-DYN Sapphire analyzer, after the blood samples had been diluted 1:1. Some samples had to be discarded because of clotting but all groups included at least blood from 3 animals.

Cc1ncc(COP(=O)(O)O)c(CN(CCN(CC(=O)O)Cc2c(COP(=O)(O)O)cnc(C)c2O)CC(=O)O)c1O.[Mn] [MnDPDP, Manganese N,N′-bis-(pyridoxal-5-phosphate)-ethylenediamine-N,N′-diacetic acid]
renal zinc excretion [1]: approximately 3 μmol/kg b.w. | amount of manganese released from the complex ([2]; as exemplified by Example 1): 85% | Mn excretion in urine during 0-24 h as percentage of the injected dose ([2]; 0.25 ml 10 mM MnDPDP ± 0.5 ml 10 mM DPDP, mean±S.E.M., n=7): 15.7±1.1% | Zn brain content [3]: identical | percentage increase in brain Mn [3]: 23.5% | effect on 0-24 h Zn excretion [4]: relatively small effect | amount of zinc in the urine up to 24 hours ([4]; 10 μmol/kg b.w. MnDPDP): about 2 μmol/kg b.w. | protection against paclitaxel-induced leucopenia (white blood cells [5]): effectively protect | manganese originating from the chelator that comes out in the urine [6]: ≤ 20%

CC(=O)O[C@H]1C(=O)[C@@]2(C)[C@H]([C@H](OC(=O)c3ccccc3)[C@]3(O)C[C@H](OC(=O)[C@H](O)[C@@H](NC(=O)c4ccccc4)c4ccccc4)C(C)=C1C3(C)C)[C@]1(OC(C)=O)CO[C@@H]1C[C@@H]2O [Paclitaxel, paclitaxel]
reduction of the various white blood cells (white blood cells [7]): ~50%

Cc1ncc(COP(=O)(O)O)c(CN(CCN(CC(=O)O)Cc2c(COP(=O)(O)O)cnc(C)c2O)CC(=O)O)c1O [DPDP, N,N′-bis-(pyridoxal-5-phosphate)-ethylenediamine-N,N′-diacetic acid]
effect of increasing doses of DPDP on 0-24 h Mn excretion ([4]; 0-30 μmol/kg b.w. DPDP): just minor effects | effect on 0-24 h Zn excretion [4]: doubles the zinc excretion | 0-24 h Zn excretion (saturation level) ([4]; at a dose of 10 μmol/kg b.w. DPDP): around 4 μmol/kg

From US10688087B2, “Pharmaceutical compositions and therapeutic methods employing a combination of a manganese complex compound and a non-manganese complex form of the compound” (PLEDPHARMA AB, priority 2009, dated 2020)
